Measurements reported in patent US10945989B2, “Perinatal treatment with a flavonoid agonist of the TrkB receptor for BDNF rescues neurogenesis and behavior in the Ts65Dn mouse model of DS” (ALMA MATER STUDIORUM—Universita' di Bologna, priority 2017, dated 2021).

Tests used:
[1] = Body and brain weight, neonatal treatment (P15, P45); format: in vivo, mouse
Method: (§1) Euploid and Ts65Dn mice received a daily subcutaneous injection (at 9-10 am) of 7,8-DHF (5.0 mg/kg in vehicle: PBS with 1% DMSO) or vehicle from postnatal day 3 (P3) to postnatal day 15. This timing was chosen because it corresponds to that previously used to test the effects of fluoxetine and other pharmacotherapies in the neonate Ts65Dn mouse (Bianchi et al., 2010b; Giacomini et al., 2015; Stagni et al., 2016). Mice that received 7,8-DHF will be called “treated mice” (treated euploid mice: n=25; treated Ts65Dn mice: n=15). Mice that received the vehicle will be called “untreated mice” (untreated euploid mice: n=35; untreated Ts65Dn mice: n=21). […] The brains were excised and cut along the midline. The left hemisphere of a group of mice was fixed by immersion in PFA 4% and frozen, and the left hemisphere of another group of mice was used for Golgi staining. The right hemispheres of all mice was kept at −80° C. and used for western blotting.
Euploid and Ts65Dn mice received a daily subcutaneous injection (at 9-10 am) of 7,8-DHF (5.0 mg/kg in vehicle) or vehicle from postnatal day 3 (P3) to postnatal day P45-P50. […] These mice will be called here P45 mice. Mice were behaviorally tested in the 6 days that preceded the day of sacrifice (FIG. 2B).
The body weight of mice of all groups was recorded prior to sacrifice and the brain weight was recorded immediately after brain removal. The number of animals used for each experimental procedure is specified in the figure legends and in Table 3.

[2] = system: NPCs from the SVZ of Ts65Dn mice; assay: Differentiation of NPC cultures (MAP2/Nestin immunolocalization); format: cell-based, mouse; conditions: 96 h, differentiating conditions
Method: Cells were isolated from the subventricular zone (SVZ) of the lateral ventricle and the subgranular zone (SGZ) of the hippocampal dentate gyrus (DG) of newborn (P1-P2) euploid and Ts65Dn mice. Briefly, brains were removed, the SVZ and SGZ regions were isolated and individually collected in ice-cold PIPES buffer pH 7.4. After centrifugation, tissue was digested for 10 min at 37° C. using Trypsin/EDTA 0.25% (Life Technologies) aided by gentle mechanical dissociation. Cell suspension from each individual mouse was plated onto 25 cm^2 cell-culture flask (Thermo Fisher Scientific) and cultured as floating neurospheres in medium containing basic fibroblast growth factor (bFGF, 10 ng/ml; Peprotech) and epidermal growth factor (EGF, 20 ng/ml; Peprotech) using an established protocol (Meneghini et al., 2014). […] Cell proliferation was quantified as relative luminescence units (RLU) values using Cell Titer-Glo viability assay reagent (Promega) on aVictor^3-V plate reader (PerkinElmer). […] In each experiment, five fields/well (corresponding to about 150-200 cells/well) were counted with a 60× objective by a Leica DMIRB inverted fluorescence microscope. Immunoreactive cells were counted and their percentage over total viable cells was calculated. […]

[3] = Liu et al., 2010 and 2013; cited from earlier work
ERK1/ERK2 = assay: Western blot of hippocampal homogenates: ERK1/2 and p-ERK1/2; format: in vivo, mouse; conditions: for ERK2/ERK1 ratio, mean / p-ERK2/p-ERK1 ratio, mean: hippocampal region
Method: as §1
In homogenates of the hippocampal formation of P15 mice, total proteins were obtained as previously described (Trazzi et al., 2011) and the levels of the following proteins were evaluated: BDNF, TrkB full length (TrkB-FL), phosphorylated TrkB (p-TrkB), the truncated form 1 of the TrkB receptor (TrkB-T1), phosphorylated ERK1 (p-ERK1), phosphorylated ERK2 (p-ERK2), ERK1, ERK2, synaptophysin (SYN), GAPDH and α-Tubulin using the antibodies reported in Table 1. Densitometric analysis of digitized images with ChemiDoc XRS+ was performed with Image Lab software (Bio-Rad Laboratories, Hercules, Calif., USA) and intensity for each band was normalized to the intensity of the corresponding GAPDH or α-Tubulin band.

[4] = P15 Ts65Dn mice, 5.0 mg/kg s.c. daily P3-P15
[5] = P45 Ts65Dn mice, 5.0 mg/kg s.c. daily P3-P45

With `O=c1cc(-c2ccccc2)oc2c(O)c(O)ccc12` [7,8-DHF, 7,8-dihydroxyflavone] the body weight [1, 4] was “did not further reduce the body weight”, the brain weight [1, 4] was “did not cause a further brain weight reduction” and the brain weight ([1]; P15 euploid mice, 5.0 mg/kg s.c. daily P3-P15, vs untreated) was “slight but significant brain weight reduction”. For the same compound, the body weight [1, 5] was “did not further reduce their body weight”, the “brain weight (reduction vs untreated euploid mice)” value [1, 5] was “this difference disappeared” and the body weight ([1]; P45 euploid mice, 5.0 mg/kg s.c. daily P3-P45, vs untreated) was “body weight reduction”. For the same compound, the “percentage of Nestin+/MAP2- cells” value [2] was “no change”, the “percentage of MAP2+/Nestin− cells” value ([2]; all concentrations, vs standard medium) was “large increase” and the blood-brain barrier penetration [3] was “penetrates the blood-brain barrier”. For the same compound, the p-ERK1 levels (ERK1/ERK2; P15 Ts65Dn mice, vs untreated Ts65Dn and untreated euploid mice) was “increase in p-ERK1 levels”, the ERK1 levels (ERK1/ERK2; P15 Ts65Dn mice, vs untreated Ts65Dn mice) was “increase in ERK1 levels” and the ERK2 levels (ERK1/ERK2; P15 Ts65Dn mice, vs untreated counterparts and untreated euploid mice) was “increase in ERK2 levels”. For the same compound, the p-ERK2 levels (ERK1/ERK2; P15 Ts65Dn mice, vs untreated euploid mice) was “increase in p-ERK2 levels”, the ERK2 levels (ERK1/ERK2; P15 euploid mice, vs untreated counterparts) was “increase in ERK2 levels” and the “stoichiometry of ERK1/2 and p-ERK1/2” value (ERK1/ERK2; Ts65Dn mice) was “did not affect their stoichiometry”. The “ERK2/ERK1 ratio, mean” value (ERK1/ERK2; Ts65Dn mice, 7,8-DHF P3-P15) was 3.93, the “p-ERK2/p-ERK1 ratio, mean” value (ERK1/ERK2; Ts65Dn mice, 7,8-DHF P3-P15) was 2.01 and the “ERK2/ERK1 ratio, mean” value (ERK1/ERK2; euploid mice, 7,8-DHF P3-P15) was 4.18. For the same compound, the “p-ERK2/p-ERK1 ratio, mean” value (ERK1/ERK2; euploid mice, 7,8-DHF P3-P15) was 2.32.
